The values below come from paper PMC3793931 (PLoS ONE, 2013).

Series [1] has as its target T1, microsomal prostaglandin E2 synthase-1 (mPGES-1) (Homo sapiens, UniProt O14684).
T1 sequence (O14684 1-152): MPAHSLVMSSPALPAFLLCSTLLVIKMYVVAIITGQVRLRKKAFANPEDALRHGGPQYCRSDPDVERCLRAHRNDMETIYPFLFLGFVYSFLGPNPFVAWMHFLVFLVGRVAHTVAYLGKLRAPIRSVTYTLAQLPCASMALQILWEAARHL
The series can be described thus: biochemical. Particulars: cell-free, A549 microsomes; n=3; >10 = significant inhibition at 10 µM, >>10 = no significant inhibition at 10 µM.
Procedure: Preparations of human A549 cells and determination of mPGES-1 activity was performed as described previously [10]. In brief, cells were treated with 1 ng/mL interleukin-1β (IL-1β) for 48 h at 37 °C, 5% CO2. Cells were harvested, sonicated and the homogenate was subjected to differential centrifugation at 10,000×g for 10 min and 174,000×g for 1 h at 4 °C. The pellet (microsomal fraction) was resuspended in 1 ml homogenization buffer (0.1 M potassium phosphate buffer, pH 7.4, 1 mM phenylmethanesulfonyl fluoride, 60 µg/mL soybean trypsin inhibitor, 1 µg/mL leupeptin, 2.5 mM glutathione, and 250 mM sucrose), and the total protein concentration was determined. Microsomal membranes were diluted in potassium phosphate buffer (0.1 M, pH 7.4) containing 2.5 mM glutathione. Test compounds or vehicle (0.1% DMSO) were added, and after 15 min at 4 °C reaction (100 µl total volume) was initiated by addition of PGH2 at the indicated concentrations. After 1 min at 4 °C, the reaction was terminated using stop solution (100 µl; 40 mM FeCl2, 80 mM citric acid, and 10 µM 11β-PGE2 as internal standard). PGE2 was separated by solid-phase extraction and analyzed by RP-HPLC as described previously [10].

For another series, the target named is T2, 5-LO in PMNL (Homo sapiens, UniProt P09917).
T2 sequence (P09917 1-674): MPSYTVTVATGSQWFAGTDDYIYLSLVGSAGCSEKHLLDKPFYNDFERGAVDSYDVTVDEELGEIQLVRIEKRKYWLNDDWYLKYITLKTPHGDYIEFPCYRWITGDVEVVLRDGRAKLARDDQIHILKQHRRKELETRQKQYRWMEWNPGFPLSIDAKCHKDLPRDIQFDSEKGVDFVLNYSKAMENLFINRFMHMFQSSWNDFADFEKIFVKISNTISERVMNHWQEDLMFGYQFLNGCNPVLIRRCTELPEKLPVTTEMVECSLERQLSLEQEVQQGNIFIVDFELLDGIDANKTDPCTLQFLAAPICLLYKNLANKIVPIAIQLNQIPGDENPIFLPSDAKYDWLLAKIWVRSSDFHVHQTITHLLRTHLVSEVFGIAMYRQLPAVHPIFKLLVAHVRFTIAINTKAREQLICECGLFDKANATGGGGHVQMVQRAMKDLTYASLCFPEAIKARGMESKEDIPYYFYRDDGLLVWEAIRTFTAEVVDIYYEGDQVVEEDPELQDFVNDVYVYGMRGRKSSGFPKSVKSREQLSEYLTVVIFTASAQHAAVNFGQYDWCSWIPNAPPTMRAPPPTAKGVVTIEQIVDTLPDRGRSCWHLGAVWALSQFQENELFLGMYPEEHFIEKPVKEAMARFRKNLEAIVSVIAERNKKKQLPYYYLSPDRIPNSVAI
The series can be described thus: cell-based. Particulars: intact human PMNL, A23187 2.5 µM + 20 µM AA, n=3, >10 = significant inhibition at 10 µM, >>10 = no significant inhibition at 10 µM.

The subject of a further series is NF-κB. The series can be described thus: NF-κB transactivation, luciferase reporter in TNF-α-stimulated HEK-293/NF-κB-luc cells. It counts as cell-based. Particulars: Homo sapiens. As for the experimental part:
The transactivation of a NF-κB-driven luciferase reporter gene was quantified in HEK-293/NF-κB-luc cells (Panomics, RC0014) as previously described. […] Six hours later cells were seeded in 96-well plates and incubated at 37°C and 5% CO2 overnight. On the next day, the medium was exchanged with serum-free DMEM and cells were treated with the respective test compounds dissolved in DMSO. To account for potential unspecific effects of the solvent, the final concentration of DMSO was always adjusted to 0.1%. One hour after treatment the cells were stimulated with 2 ng/mL human recombinant TNF-α for 6 h, and after a lysis step the luminescence of the firefly luciferase and the fluorescence of EGFP were quantified on a GeniosPro plate reader (Tecan; Grödig, Austria). The luciferase signal derived from the NF-κB reporter was normalized by the EGFP-derived fluorescence to account for differences in cell number.
To estimate of cell viability one part of the experiments were performed in cells that were not transfected with pEGFP-C1, but instead stained for 1 h in serum-free medium supplemented with 2 μM Cell Tracker Green CMFDA (C2925; Invitrogen) as described. Since this fluorescent probe is retained inside living cells, it can be used to monitor cell membrane integrity and thus has been broadly used to quantify viable cells. For quantification of NF-κB activity in this experimental setting the luciferase-derived signal from the NF-κB reporter was normalized to the Cell Tracker Green CMFDA-derived fluorescence to account for differences in cell number. Potential differences in cell viability were monitored by comparison of the Cell Tracker Green CMFDA fluorescence of the solvent vehicle treated control cells and cells treated with the indicated compounds.

The target of series [2] is T3, inhibitor of NF-κB kinase subunit beta (IKK2) (Homo sapiens, UniProt O14920).
T3 sequence (O14920 1-756): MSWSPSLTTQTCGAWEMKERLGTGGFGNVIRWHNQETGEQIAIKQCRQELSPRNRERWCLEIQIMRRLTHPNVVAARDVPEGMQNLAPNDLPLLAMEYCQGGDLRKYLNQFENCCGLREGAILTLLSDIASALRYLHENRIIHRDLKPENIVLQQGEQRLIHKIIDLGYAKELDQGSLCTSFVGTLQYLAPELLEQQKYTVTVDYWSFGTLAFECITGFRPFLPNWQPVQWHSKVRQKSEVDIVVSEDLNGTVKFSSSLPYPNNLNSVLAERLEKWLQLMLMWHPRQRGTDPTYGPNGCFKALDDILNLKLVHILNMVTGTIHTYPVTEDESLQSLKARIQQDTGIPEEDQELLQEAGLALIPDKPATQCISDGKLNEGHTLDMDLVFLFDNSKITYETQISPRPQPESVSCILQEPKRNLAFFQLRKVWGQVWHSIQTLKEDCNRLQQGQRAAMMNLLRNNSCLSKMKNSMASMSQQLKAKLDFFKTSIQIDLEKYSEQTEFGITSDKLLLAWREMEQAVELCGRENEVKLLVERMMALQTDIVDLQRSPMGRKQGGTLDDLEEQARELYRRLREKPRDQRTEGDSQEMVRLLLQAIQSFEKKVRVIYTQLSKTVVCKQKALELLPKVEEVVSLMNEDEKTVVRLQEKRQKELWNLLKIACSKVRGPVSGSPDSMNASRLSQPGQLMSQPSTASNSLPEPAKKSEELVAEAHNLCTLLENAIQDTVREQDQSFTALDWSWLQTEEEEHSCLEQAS
The series can be described thus: IKK2 kinase inhibition. Particulars: at a concentration of up to 50 μM; data not shown. It counts as biochemical. From the text:
Luciferase reporter gene expression reflects a downstream event of the NF-κB signaling cascade and cannot provide insights into the molecular targets contributing to the observed NF-κB inhibition. Thus, we tested the active compounds 4 and 5 for their potential to suppress the activity of the inhibitor of NF-κB kinase subunit beta (IKK2) as previously described, since it is a prominent upstream target of the NF-κB signaling cascade. […] Accordingly, this kinase is not a direct target of the NF-κB inhibiting depsides 4 and 5.

A further series concerns the target T4, human recombinant 5-LO (Homo sapiens, UniProt P09917).
T4 sequence (P09917 1-674): T2 sequence (P09917 1-674)
The series can be described thus: cell-free 5-LO activity assay with purified human recombinant 5-LO.

The subject of another series is 5-LO. Particulars: cited from earlier work.
The test system of series [3] is leukocyte recruitment to the peritoneum. The series can be described thus: thioglycollate-induced peritonitis, leukocyte count in peritoneal lavage. It counts as in vivo, C57BL/6J mice. The note with it: mouse. The text has this: C57BL/6J male, 8-9 weeks old mice were housed in individually ventilated cages and fed with mouse chow and acidified water ad libitum in the mouse facility of the Institute of Vascular Biology and Thrombosis Research (Vienna, Austria). Animal care and all experimental procedures were approved by the Animal Experimental Committee of the Medical University of Vienna and by the Austrian Ministry of Science (license no. BMWF-66.009/0117-II/3b/2012).
The mice of the treatment groups – sterile thioglycollate and perlatolic acid or thioglycollate alone - (3 animals per group) were pre-treated i.p. with 1 mL of 6 µM perlatolic acid or 1 µL of DMSO dissolved in 1 mL of saline. Thirty minutes later the animals were injected i.p. with another 3 mL of saline with or without sterile thioglycollate (4%), and containing again 2 μL DMSO or perlatolic acid. Five hours after the second injection mice were sacrificed by carbon dioxide exposure and peritoneal cavities were washed three times with 2 mL of cold PBS containing 3 mM EDTA and collected as intra-peritoneal lavage. The leukocyte count in the peritoneum of untreated control mice was assessed by lavage. Mice without thioglycollate treatment were used as controls. The volume of the collected lavage was measured and the cell count determined by haemocytometer.

The subject of the next series is UACC-62 melanoma cells. The note with it: cited from earlier work.
For the next series, the system named is B16-F10 melanoma cells. The note with it: cited from earlier work.
For another series, the system named is COX-1. On the set-up: method as in PMID 19289158. The note with it: at 45 µM; cited from earlier work.
The next series has as its system COX-2. More on the design: method as in PMID 19289158. Particulars: at 45 µM; cited from earlier work.
A further series deals with 12-LO. On the set-up: method as in PMID 15636173. Particulars: cited from earlier work.
Where [4] appears, read: HEK293, TNF-α-stimulated HEK-293/NF-κB-luc cells, n=3, read-out: NF-κB IC50.

Like-named read-outs stand apart in the source and are kept apart here. Where only a bound is given, the exact number is not on record here.

Procedure for 5-LO in PMNL: The blood was centrifuged at 4,000×g for 20 min at 20°C for preparation of leukocyte concentrates. Leukocyte concentrates were subjected to dextran sedimentation and centrifugation on LSM 1077 cushions (PAA Laboratories, Linz, Austria). Contaminating erythrocytes of pelleted PMNL were lysed by hypotonic lysis. PMNL were washed twice in ice-cold PBS and finally resuspended in PBS pH 7.4 containing 1 mg/mL glucose and 1 mM CaCl2 (PGC buffer) (purity > 96-97%).
For determination of LO products in intact PMNL (5 × 10^6), cells were resuspended in 1 mL PGC buffer, preincubated for 15 min at 37°C with test compounds or vehicle (0.1% DMSO), and incubated for 10 min at 37°C with the indicated stimuli. Thus, the Ca^2+-ionophore A23187 (2.5 µM) was added together with 20 µM AA and 10 min later the reaction was stopped on ice by addition of 1 mL of ice-cold methanol. Then, 30 µL 1 N HCL and 500 µL PBS, and 200 ng prostaglandin B1 were added and the samples were subjected to solid phase extraction on C18-columns (100 mg, UCT, Bristol, PA, USA). 5-LO products (LTB4 and its trans-isomers and 5-H(P)ETE) were analyzed by RP-HPLC and quantities calculated on the basis of the internal standard PGB1.

For orientation: IC50 means the concentration that gives 50% inhibition. Consider `CCCCCc1cc(OC)cc(O)c1C(=O)Oc1cc(O)c(C(=O)O)c(CCC)c1` [compound 4, imbricaric acid], for which the IC50 in series [1] came out at 1.9 µM; at 5-LO in PMNL, 5.3 µM; in the series on NF-κB (HEK293, read-out: NF-κB IC50) it was 2 µM; at human recombinant 5-LO, 3.5 µM. Moreover, in series [2], the IKK2 inhibition result is “did not inhibit IKK2”.

Turning to `CCCCCc1cc(O)cc(O)c1C(=O)OCC` [compound 8, ethyl olivetolate], the figures for the IC50 (in series [1]; at 5-LO in PMNL; on human recombinant 5-LO) were greater than 10 µM, 6.8 µM and greater than 10 µM, respectively.

With `CCCCCc1cc(O)cc(OC)c1` [compound 9, olivetolmonomethylether], the IC50 in series [1] was greater than 10 µM; at 5-LO in PMNL, greater than 10 µM; on human recombinant 5-LO, 7.2 µM.

For `CCCCCc1cc(OC)cc(O)c1C(=O)OCC` [compound 7, ethyl-4-O-methylolivetolcarboxylate], the IC50 (in [1]; at 5-LO in PMNL; at human recombinant 5-LO) was greater than 10 µM each time.

For `COc1cc(C)c(C(=O)Oc2cc(C)c(C(=O)O)c(O)c2C)c(O)c1C=O` [baeomycesic acid], in the series with 5-LO (read-out: 5-LO IC50), the IC50 is 8.3 µM.

With `CCCCCc1cc(OC(=O)c2c(O)cc(OC)cc2CCCCC)cc(O)c1C(=O)O` [compound 5, perlatolic acid], the IC50 in series [1] came out at 0.4 µM; at 5-LO in PMNL, 1.8 µM; in the series with NF-κB (setting [4]) it was 7 µM; at human recombinant 5-LO it was 0.4 µM. Further, the IKK2 inhibition entry in series [2] was “did not inhibit IKK2”. For the same compound, the “reduction of thioglycollate-induced increase in total leukocyte count in peritoneal lavage fluid” value in [3] (i.p. co-administration, 5 h after TG injection, n=3, p<0.05) was 30-40%. Further, in [3] (i.p., acute inflammation model), the “toxic effects observed in the animals” value is “no hints of toxic effects”. For the same compound, in the series on UACC-62 melanoma cells, the “cytotoxicity on UACC-62 melanoma cells” value is “moderate selective cytotoxicity”. Further, in the series with B16-F10 melanoma cells, the “cytotoxicity on B16-F10 melanoma cells” value is reported as “moderate selective cytotoxicity”.

Take `COC(=O)c1c(C)cc(OC(=O)c2c(C)cc(O)c(C=O)c2O)c(C)c1O` [compound 3, atranorin]: the IC50 was greater than 10 µM in series [1], greater than 10 µM at 5-LO in PMNL, 20 µM in the series with NF-κB (setting [4]) and greater than 10 µM on human recombinant 5-LO. In addition, the COX-1 inhibition with COX-1 is listed as roughly 45%. For the same compound, the COX-2 inhibition with COX-2 is listed as roughly 45%. In the series on 5-LO, the “activity against 5-LO” value was “inactive”.

With `COC(=O)c1c(C)cc(O)c(C)c1O` [compound 2, methylbetaorcinolcarboxylate], the IC50 (in series [1]; at 5-LO in PMNL; at human recombinant 5-LO) was greater than 10 µM throughout.

As for `CCCCCc1cc(O)cc(O)c1` [compound 10, olivetol], the IC50 (in [1]; on 5-LO in PMNL) was greater than 10 µM throughout.

As for `CCOC(=O)c1c(C)cc(O)c(C=O)c1O` [compound 1, ethyl haematommate], the values for the IC50 (in series [1]; on 5-LO in PMNL; on human recombinant 5-LO) were greater than 10 µM, greater than 10 µM and 7.6 µM, respectively.

With `CC(c1cc2ccccc2s1)N(O)C(N)=O` (stereo not drawn) [zileuton], in the series on 5-LO (read-out: 5-LO IC50, data from the literature), the IC50 was […].

Turning to `CCCc1cc(O)cc(O)c1` [compound 11, divarinol], the IC50 (in [1]; at 5-LO in PMNL) was greater than 10 µM in each case.

For `CCCCCc1cc(OC)cc(O)c1C(=O)O` [compound 6, 4-O-metylolivetolcarboxylic acid], the IC50 (in series [1]; on 5-LO in PMNL; on human recombinant 5-LO) was greater than 10 µM in each case.

For the compound `C=C1C(=O)O[C@H]2[C@H]1CC/C(C)=C/CC[C@@]1(C)O[C@@H]21` [parthenolide, reference compound], the IC50 in the series with NF-κB (setting [4]) is 1.5 µM.

`CCCCCc1c2c(cc(O)c1C(=O)O)OC(=O)c1c(cc(OC)cc1C(=O)CCCC)O2` [lobaric acid]: the IC50 in the series with 5-LO (read-out: 5-LO IC50) and in the series on 12-LO was no less than 28.5 µM in each case.
